The source of these data is publication PMC8952208, “Synthesis, Antiplasmodial, and Antileukemia Activity of Dihydroartemisinin–HDAC Inhibitor Hybrids as Multitarget Drugs” (Pharmaceuticals, 2022).

One test relates to P. falciparum Dd2 R539T. Nature of the test: In vitro P. falciparum growth inhibition assay (HRP2), Dd2 R539T. Type of test: cell-based. Particulars: Plasmodium falciparum, DD2, 72 h, read-out: PfDd2 R539T IC50. On the procedure:
Antiplasmodial activity of DHA–HDACi hybrids was evaluated against the asexual stages of the laboratory P. falciparum strains (3D7, chloroquine-sensitive strain, and Dd2, chloroquine-resistant strain, and Dd2 R539T (MRA-1255), provided by BEI Resources carrying a kelch13-mutation that conveys partial artemisinin resistance), using the histidine-rich protein 2 (HRP2) assay, as previously described. In brief: 96-well plates were precoated with the tested compounds in a three-fold serial dilution before ring-stage parasites were added in complete culture medium at a hematocrit of 1.5% and a parasitaemia of 0.05%. After three days of incubation at 37 °C, 5% CO2 and 5% O2 plates were frozen until analyzed by HRP2-ELISA. All compounds were evaluated in duplicate in at least two independent experiments. The IC50 was determined by nonlinear regression analysis of log concentration-response curves using the drc-package v3.0.1 [40] of R v4.0.5..

The subject of test [1] is K562 cells. Nature of the test: CellTiter-Glo cell viability assay, K562. Type of test: cell-based, human. Particulars: for IC50: Homo sapiens, K562, CML, 72 h, CellTiter-Glo, n = 3; for Selectivity index range healthy fibroblasts vs K562: SI = (healthy fibroblast IC50)/(leukemia cell line IC50), range over two fibroblasts. On the procedure:
(§1) Healthy individually-derived fibroblasts were cultured in DMEM supplemented with 10% FCS. Regular cell line authentication was performed short tandem repeat (STR) analysis (DNA fingerprinting), followed by comparison with the original DSMZ cell line database.
(§2) Cell viability assay was performed with leukemic cell lines after 72 h incubation with the respective inhibitors using ATP-based CellTiter-Glo luminescent assay (Promega, Madison, WI, USA).

The target of another test is T1, human HDAC6 (hHDAC6) (Homo sapiens, UniProt Q9UBN7).
T1 construct: purchased BPS Bioscience Inc. 50006
T1 sequence (Q9UBN7 1-1215): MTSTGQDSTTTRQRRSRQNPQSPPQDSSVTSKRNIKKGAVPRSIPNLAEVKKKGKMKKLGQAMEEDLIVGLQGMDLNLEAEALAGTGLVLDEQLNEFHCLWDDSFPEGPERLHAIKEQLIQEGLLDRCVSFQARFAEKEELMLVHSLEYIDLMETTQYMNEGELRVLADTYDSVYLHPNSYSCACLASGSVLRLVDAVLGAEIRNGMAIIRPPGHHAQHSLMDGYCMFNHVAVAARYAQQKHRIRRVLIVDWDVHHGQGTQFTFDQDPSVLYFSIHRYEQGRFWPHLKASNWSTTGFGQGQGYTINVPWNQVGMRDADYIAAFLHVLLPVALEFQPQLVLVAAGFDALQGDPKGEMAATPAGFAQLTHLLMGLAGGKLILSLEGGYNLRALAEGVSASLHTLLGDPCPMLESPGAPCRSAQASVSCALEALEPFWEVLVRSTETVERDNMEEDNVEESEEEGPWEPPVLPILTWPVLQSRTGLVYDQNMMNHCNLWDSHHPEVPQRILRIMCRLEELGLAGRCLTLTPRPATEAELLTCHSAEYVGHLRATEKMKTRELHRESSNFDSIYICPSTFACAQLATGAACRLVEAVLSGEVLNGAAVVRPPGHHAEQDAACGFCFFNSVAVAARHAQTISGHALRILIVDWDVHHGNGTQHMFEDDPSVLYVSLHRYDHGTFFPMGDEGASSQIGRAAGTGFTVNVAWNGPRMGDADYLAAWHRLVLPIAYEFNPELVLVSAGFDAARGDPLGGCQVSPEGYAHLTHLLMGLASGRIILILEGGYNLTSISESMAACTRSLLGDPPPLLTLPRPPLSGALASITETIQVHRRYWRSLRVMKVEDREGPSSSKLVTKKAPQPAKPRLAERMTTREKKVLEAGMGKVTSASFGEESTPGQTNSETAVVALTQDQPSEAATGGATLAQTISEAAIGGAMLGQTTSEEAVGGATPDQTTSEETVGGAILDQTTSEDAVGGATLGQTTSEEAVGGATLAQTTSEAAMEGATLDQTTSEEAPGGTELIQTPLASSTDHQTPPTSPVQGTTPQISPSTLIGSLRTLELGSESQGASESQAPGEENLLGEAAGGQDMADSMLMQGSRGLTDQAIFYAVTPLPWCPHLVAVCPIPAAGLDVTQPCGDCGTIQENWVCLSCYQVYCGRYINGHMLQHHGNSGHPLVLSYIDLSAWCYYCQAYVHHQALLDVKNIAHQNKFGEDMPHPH
In words: In vitro human HDAC6 assay (ZMAL substrate). The following applies: for SI 1/6: Selectivity Index = (hHDAC1 IC50)/(hHDAC6 IC50). Type of test: biochemical. The method, then: OptiPlate-96 black microplates (Perkin Elmer Inc., Waltham, MA, USA) were used with an assay volume of 50 µL. […] After an incubation time of 90 min, 50 µL of 0.4 mg/mL trypsin in trypsin buffer (50 mM Tris-HCl, pH 8.0, and 100 mM NaCl) was added, followed by further incubation at 37 °C for 30 min.

The next test has as its system A2780 cells. Nature of the test: MTT cell viability assay. The following applies: Homo sapiens, 72 h, n ≥ 3 in triplicate, mean ± SD. Type of test: cell-based. On the procedure:
Reagents were obtained from PAN Biotech, Aidenbach Germany. The cell line was cultured at 37 °C under humidified air with 5% CO2 to a confluence of 80–90% before being used for further assays.
Intrinsic cytotoxicity of test compounds was determined by an MTT assay as previously described. A2780 cells were seeded in 96-well plates (Starlab GmbH, Hamburg, Germany) at a density of 20,000 cells/well and allowed to attach for 12 h. Cells were then treated with increasing concentrations of the test compounds. After 72 h, MTT (3-(4,5-dimethylthiazol-2-yl)-2,5-diphenyltetrazolium bromide) (BioChemica, Applichem GmbH, Darmstadt, Germany) solution (5 mg/mL in phosphate-buffered saline) was added to determine cell survival. The formazan dye was dissolved in DMSO (Sigma-Aldrich, Darmstadt, Germany) after 1 h. Absorbance was measured at 570 nm and 690 nm in a Multiskan microplate photometer (Thermo Fisher Scientific, Waltham, MA, USA). Concentration-response curves were generated using the four-parameter logistic equation (GraphPad Prism 9.0, San Diego, USA), and mean IC50 values were calculated in triplicates based on at least three different experiments.
(Tetrazolium assays rely on reduction of a dye to a coloured formazan, in cell work by metabolically active cells.)

Test [2] relates to K562 cells. In words: Annexin V-PI staining. Type of test: cell-based, human. The following applies: 48 h, 0.4 µM or 0.8 µM. The method, then:
To evaluate the induction of apoptosis upon respective inhibitor treatment, K562 cells were incubated (48 h) with inhibitors (0.4 µM or 0.8 µM) or with vehicle control (DMSO). The induction of apoptosis/necrosis was analyzed by measuring hypodiploid DNA content, mitochondrial potential, and exposure of phosphatidylserine after annexin/propidium iodide (PI) staining kit (BD, Franklin lakes, NJ, USA) using FACS.

In test [3] the test system is five leukemia cell lines (K562, HL60, NALM6, HPBALL, MOLM13). In words: CellTiter-Glo cell viability assay, panel of five leukemia cell lines. Particulars: for antiproliferative activity compared to DHA: number of the five leukemia cell lines in which DHA is exceeded. Format: cell-based, human. On the procedure: as §1, §2
The test system of the next test is Healthy Fibroblast 1. Nature of the test: Cytotoxicity against healthy fibroblast 1. Type of test: cell-based. Particulars: Homo sapiens, healthy individually-derived fibroblasts. On the procedure: as §1, §2

For orientation: IC50 means the concentration that gives 50% inhibition. On to `C[C@@H]1CC[C@H]2[C@@H](C)C(OCc3ccc(/C=C/C(=O)NO)cc3)O[C@@H]3O[C@@]4(C)CC[C@@H]1[C@]32OO4` (stereo partly drawn) [Compound 7a, (E)-N-Hydroxy-3-(4-((((3R,5aS,6R,8aS,9R,12R,12aR)-3,6,9-trimethyldecahydro-12H-3,12-epoxy[1,2]dioxepino[4,3-i]isochromen-10-yl)oxy)methyl)phenyl)acrylamide], for which the IC50 in the test with P. falciparum Dd2 R539T is 1.9 ± 1.4 nM; in the test with K562 cells [1] it was 310 ± 60 nM; at human HDAC6 (hHDAC6) it was 187 ± 4 nM; in the test with A2780 cells it was 1950 ± 520 nM; in test [3] (Homo sapiens, range over K562, HL60, NALM6, HPBALL, MOLM13, read-out: IC50 values across the five leukemia cell lines), 150 to 1360 nM; in the test on Healthy Fibroblast 1, 13100 ± 100 nM. In addition, the “Selectivity index range healthy fibroblasts vs K562” value in the test with K562 cells [1] is listed as 21-42. Also, the “SI 1/6” value at human HDAC6 (hHDAC6) was found to be 3. Further, the “apoptosis induction (annexin V/PI)” value in the test on K562 cells [2] was “significantly induced apoptosis as compared to DHA”. In test [3] (highest SI across leukemia cell lines and fibroblasts), the “selectivity indices (SI) fibroblasts over leukemia cells, highest” value was “up to 87”. Besides, in test [3], the “antiproliferative activity compared to DHA” value was “all five cell lines”.
Regarding `C[C@H]1[C@H](SCc2ccc(C(=O)NO)cc2)O[C@@H]2O[C@@]3(C)CC[C@H]4[C@H](C)CC[C@@H]1[C@@]24OO3` [(β)-7c, N-Hydroxy-4-((((3R,5aS,6R,8aS,9R,10S,12S,12aR)-3,6,9-trimethyldecahydro-12H-3,12-epoxy[1,2]dioxepino[4,3-i]isochromen-10-yl)thio)methyl)benzamide], the IC50 in the test on P. falciparum Dd2 R539T came out at 2.6 ± 2 nM; in the test with K562 cells [1], 410 ± 110 nM; against human HDAC6 (hHDAC6) it was 41 ± 9 nM; with A2780 cells, 880 ± 130 nM; in the test with Healthy Fibroblast 1 it was 14700 ± 3420 nM. Also, in the test with K562 cells [1], the “Selectivity index range healthy fibroblasts vs K562” value is given as 36-43. Also, on human HDAC6 (hHDAC6), the “SI 1/6” value is 68. Further, the “apoptosis induction (annexin V/PI)” value with K562 cells [2] was “significantly induced apoptosis as compared to DHA”. In test [3], the “antiproliferative activity compared to DHA” value is on record as “outperforming DHA in four out of five”.
`C[C@H]1[C@@H](SCc2ccc(C(=O)NO)cc2)O[C@@H]2O[C@@]3(C)CC[C@H]4[C@H](C)CC[C@@H]1[C@@]24OO3` [(α)-7c, N-Hydroxy-4-((((3R,5aS,6R,8aS,9R,10R,12S,12aR)-3,6,9-trimethyldecahydro-12H-3,12-epoxy[1,2]dioxepino[4,3-i]isochromen-10-yl)thio)methyl)benzamide]: the IC50 amounted to 3.3 ± 2.2 nM with P. falciparum Dd2 R539T; 620 ± 60 nM in the test with K562 cells [1]; 36 ± 8 nM against human HDAC6 (hHDAC6); 1100 ± 250 nM in the test on A2780 cells; 12690 ± 120 nM in the test with Healthy Fibroblast 1. The “Selectivity index range healthy fibroblasts vs K562” value in the test with K562 cells [1] is on record as 12-21. Further, on human HDAC6 (hHDAC6), the “SI 1/6” value is listed as 56. The “necrosis induction (annexin V/PI)” value with K562 cells [2] is on record as “induced significant necrosis”. In test [3], the “antiproliferative activity compared to DHA” value is recorded as “all five cell lines”.
As for `C[C@H]1[C@@H](O)O[C@@H]2O[C@@]3(C)CC[C@H]4[C@H](C)CC[C@@H]1[C@@]24OO3` [DHA, dihydroartemisinin], the IC50 was 2400 ± 660 nM with K562 cells [1], greater than 10000 nM against human HDAC6 (hHDAC6), 970 ± 70 nM in the test on A2780 cells and greater than 25000 nM with Healthy Fibroblast 1.
